# According to publication PMC6540285, “Evaluation of Protein Kinase Inhibitors with PLK4 Cross-Over Potential in a Pre-Clinical Model of Cancer” (International Journal of Molecular Sciences, 2019):
# Legend:
# FLT3 D835Y = FLT3 D835Y (Homo sapiens, UniProt P36888, D835Y); assay: SelectScreen kinase profiling, ZLYTE; type: biochemical
# PI4KB (PI4K beta) = PI4KB (PI4K beta) (Homo sapiens, UniProt Q9UBF8); assay: SelectScreen kinase profiling, Adapta; type: biochemical
# Sequence of PI4KB (PI4K beta) (Q9UBF8 whole entry): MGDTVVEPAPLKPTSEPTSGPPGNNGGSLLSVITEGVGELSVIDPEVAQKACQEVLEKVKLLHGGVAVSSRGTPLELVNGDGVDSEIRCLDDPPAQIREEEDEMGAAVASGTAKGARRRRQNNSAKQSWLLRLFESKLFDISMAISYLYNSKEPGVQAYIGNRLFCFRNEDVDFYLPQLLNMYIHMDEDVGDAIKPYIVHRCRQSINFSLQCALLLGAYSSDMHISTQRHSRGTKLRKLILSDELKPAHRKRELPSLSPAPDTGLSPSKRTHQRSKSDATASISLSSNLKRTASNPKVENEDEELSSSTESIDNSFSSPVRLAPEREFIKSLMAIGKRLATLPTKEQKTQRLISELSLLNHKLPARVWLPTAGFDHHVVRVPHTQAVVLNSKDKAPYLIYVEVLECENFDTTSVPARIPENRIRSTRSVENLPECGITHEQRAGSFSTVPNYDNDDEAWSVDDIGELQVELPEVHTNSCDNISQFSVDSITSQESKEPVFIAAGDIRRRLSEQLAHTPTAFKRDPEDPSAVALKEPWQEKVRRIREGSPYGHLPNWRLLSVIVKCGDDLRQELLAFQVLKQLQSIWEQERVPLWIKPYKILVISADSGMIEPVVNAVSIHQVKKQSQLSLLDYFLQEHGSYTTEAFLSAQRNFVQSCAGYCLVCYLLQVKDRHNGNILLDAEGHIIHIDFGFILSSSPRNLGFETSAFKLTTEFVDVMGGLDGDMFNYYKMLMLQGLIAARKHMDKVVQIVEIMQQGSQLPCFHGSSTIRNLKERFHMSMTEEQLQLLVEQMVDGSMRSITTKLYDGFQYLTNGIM
compound,measurement,setting,value
O=C(c1ccc(/C=C/c2n[nH]c3ccccc23)cc1)N1CCNCC1 [KW-2449],inhibition at 10 µM,FLT3 D835Y,100%
same,inhibition at 10 µM,PI4KB (PI4K beta),10%
